# Experimental data: US9585854B2, “N-acetyl-L-cysteine for use in in vitro fertilization” (IASOMAI AB, priority 2012, dated 2017)
# Read-outs that look alike come from different tables or passages of the source. Where a SMILES comes first, the peptide text is derived from it. Bridges are numbered along the chain shown (N, C = ends). [ ]: non-standard residue; d: D form. Orn = NCCC[C@H](N)C(=O)O; Mpa = O=C(O)CCS
# Legend:
# [1] = test system: pregnancy rates after IVF-ET; details: cited from earlier work
# [2] = test system: oxytocin antagonist; implantation after IVF; details: cited from earlier work
# embryo implantation = embryo implantation in oxytocin-treated mice; assay type: in vivo; details: mice given oxytocin
# Description: Indeed, in mice, NAC was confirmed to support embryo implantation. In the animal model, embryo implantation rate was decreased when the mice were given oxytocin.
# In mice, NAC was confirmed to support embryo implantation. In the animal model, embryo implantation rate was decreased when the mice were given oxytocin.
# [3] = test system: RGD recognition sites on integrins; details: cited from earlier work
# [4] = test system: Isolated uteri from virgin Wistar rats; assay: isolated organ bath study of uterine contractions; parameters: species or system rat
# Protocol: Animals were kept at 22° C., housed 3 per cage and fed ad libitum. Isolated uteri from virgin Wistar rats (200-280 g) in estrous, which was determined by examination of a daily vaginal smear, were used.
# Protamine sulphate (PS) and NAC were dissolved in pure water.
# All rats were sacrificed by cervical dislocation. The uterine horns were excised, carefully cleaned and mounted vertically in a 10 ml volume organ bath containing De Jalon's solution (NaCl 154 mM, KCl 5.6 mM, CaCl2×2H2O 0.41 mM, NaHCO 2 5.9 mM and glucose 2.8 mM), under 1 g tension, aerated with 95% oxygen and 5% carbon dioxide at 37° C. […] After 10 min increasing concentrations of PS were added until the total cessation of contractions was observed.
# Myometrial tension was recorded isometrically with an organ bath and transducer.
# Effects of treatments on uterine contractions were calculated as percentages for control, untreated and contracting conditions. Each data value is expressed as the mean±SEM. differences between groups were analyzed by two-way ANOVA. EC50 values were compared using one-way ANOVA
compound,measurement,setting,value
CC(=O)[C@H]1CC[C@H]2[C@@H]3CCC4=CC(=O)CC[C@]4(C)[C@H]3CC[C@]12C [Progesterone],effect on pregnancy rates,[1],no benefit
CCOc1ccc(C[C@H]2NC(=O)CCSSC[C@@H](C(=O)N3CCC[C@H]3C(=O)N[C@@H](CCCN)C(=O)NCC(N)=O)NC(=O)[C@H](CC(N)=O)NC(=O)[C@H]([C@@H](C)O)NC(=O)[C@H]([C@@H](C)CC)NC2=O)cc1 [atosiban] ([Mpa][dY](Et)ITNCP[Orn]G-NH2; disulfide 1-6),Implantation rates per embryo transferred,"[2]; total i.v. dose 37.5 mg before and up to 2 h after embryo transfer, placebo 12.6%",20.4%
same,early miscarriages,"[2]; total i.v. dose 37.5 mg, placebo 24.4%",16.7%
same,clinical pregnancy rates per cycle,"[2]; total i.v. dose 37.5 mg, placebo 28.9%",46.7%
CC[C@H](C)[C@@H]1NC(=O)[C@H](Cc2ccc(O)cc2)NC(=O)[C@@H](N)CSSC[C@@H](C(=O)N2CCC[C@H]2C(=O)N[C@@H](CC(C)C)C(=O)NCC(N)=O)NC(=O)[C@H](CC(N)=O)NC(=O)[C@H](CCC(N)=O)NC1=O [oxytocin],embryo implantation rate,embryo implantation,decreased
CN1C(C(=O)Nc2ccccn2)=C(O)c2ccccc2S1(=O)=O [piroxicam],effect on pregnancy rates,[1],positive effect
CC(NCCc1ccc(O)cc1)C(O)c1ccc(O)cc1 (stereo not drawn) [ritodrine],effect on pregnancy rates,[1],positive effect
Arg-Gly-Asp (RGD) peptide [RGD peptide],rat blastocyst attachment to Ishikawa cells,[3]; either the blastocysts or the Ishikawa cells pre-incubated,significant reduction in blastocyst attachment
same,rat blastocyst attachment to Ishikawa cells,[3]; pre-treatment of both blastocysts and Ishikawa cells,"inhibited blastocyst attachment, but not completely"
Protamine sulphate [PS],relaxation of uterine contractions,[4]; calcium ion-induced uterine contractions,dose-dependent relaxation
same,relaxation of uterine contractions,[4]; spontaneously active uteri,dose-dependent relaxation
same,EC50 for PS-treated uteri,[4]; spontaneously active vs calcium ion-induced uteri,lower in spontaneously active uteri than in calcium ion-induced uteri
